Data set [1] in a line: Lipophilicity, log D of the compound in acetonitrile/water at 1:1 ratio at pH 7.5 by RP-HPLC analysis. The format is physicochemical. To be noted: acetonitrile/water 1:1 (RP-HPLC).
Data set [2] is described as follows: Aqueous solubility of the compound in DMSO at 6.5 after 24 hrs by HPLC-MS/MS analysis. Type of data set: physicochemical. Particulars: aqueous medium with DMSO, pH 6.5.
A short description of data set [3]: Chemical stability of the compound assessed as degradation rate at pH 1 to 10 after 24 hrs by HPLC-UV analysis. The format is physicochemical. Particulars: buffer, pH 1, 24 h.
Data set [4] can be described thus: Apparent permeability across apical to basolateral side in human Caco2 cells at 2 uM after 2 hrs by LC-MS/MS analysis. The format is ADME, cell-based. To be noted: Caco-2. A general note: Passage across Caco-2 layers is used to estimate intestinal permeability.
The nature of data set [5]: Apparent permeability across basolateral to apical side in human Caco2 cells at 2 uM after 2 hrs by LC-MS/MS analysis. Type of data set: ADME, cell-based. To be noted: Caco-2.
Data set [6] can be described thus: Clearance in human liver microsomes at 1 uM up 60 mins in presence of NADP and glucose-6-phosphate by LC-MS/MS analysis. To be noted: 1 h. The format is ADME, Microsome.
The nature of data set [7]: Maximal oral bioavailability in human. To be noted: in vivo. Type of data set: ADME, organism-based.
The nature of data set [8]: Clearance in Han/Wistar rat hepatocytes at 1 uM up 90 mins by HPLC-MS/MS analysis. The format is ADME, cell-based, Hepatocyte.
A short description of data set [9]: Maximal oral bioavailability in Han/Wistar rat. The format is ADME, organism-based. Particulars: in vivo.

Molecules are shown by their SMILES. Values after ≈ are worked out from the molar mass of the structure shown.

The chromatographic logD is a lipophilicity value derived from retention on a column. A word on the solubility: it is how much of the substance goes into solution per volume. Low readings indicate a poorly soluble substance, high ones a readily soluble substance. Usually Papp A→B stands for the apparent permeability from the apical to the basolateral side of a cell layer. As a reminder, the Papp B→A is the apparent permeability from the basolateral to the apical side of a cell layer. For the molecule `CN1CCN(c2cnc3c(C4CCN(C(=O)c5ccc(OC(F)(F)F)cc5N)CC4)ncnc3c2)CC1` [BAY-885], the chromatographic logD in data set [1] was 2.4. The solubility at 24 h in data set [2] was 218 µg/mL (≈ 423 µM). Besides, the Stability entry in data set [3] is recorded as “Stable”. Moreover, the Papp A→B at 2 h, 2 µM in data set [4] is 18.4 ×10⁻⁶ cm/s. Also, in [5], the basolateral-to-apical permeability (Papp B→A) at 2 h, 2 µM turned out to be 10.7 ×10⁻⁶ cm/s. Further, the values for the CLH in [6] and in data set [8] were 0.8 L/h/kg and 3.7 L/h/kg, respectively. The Fmax is 38% in data set [7] and 13% in data set [9].

These data come from ChEMBL document CHEMBL4330097 (J Med Chem, 2019).
